The source of these data is PMC7428016, “Influence of ligand’s directional configuration, chrysenes as model compounds, on the binding activity with aryl hydrocarbon receptor” (Scientific Reports, 2020).

For one data set, the target named is T1, AhR (Rattus norvegicus, UniProt P41738).
T1 sequence (P41738 10-853): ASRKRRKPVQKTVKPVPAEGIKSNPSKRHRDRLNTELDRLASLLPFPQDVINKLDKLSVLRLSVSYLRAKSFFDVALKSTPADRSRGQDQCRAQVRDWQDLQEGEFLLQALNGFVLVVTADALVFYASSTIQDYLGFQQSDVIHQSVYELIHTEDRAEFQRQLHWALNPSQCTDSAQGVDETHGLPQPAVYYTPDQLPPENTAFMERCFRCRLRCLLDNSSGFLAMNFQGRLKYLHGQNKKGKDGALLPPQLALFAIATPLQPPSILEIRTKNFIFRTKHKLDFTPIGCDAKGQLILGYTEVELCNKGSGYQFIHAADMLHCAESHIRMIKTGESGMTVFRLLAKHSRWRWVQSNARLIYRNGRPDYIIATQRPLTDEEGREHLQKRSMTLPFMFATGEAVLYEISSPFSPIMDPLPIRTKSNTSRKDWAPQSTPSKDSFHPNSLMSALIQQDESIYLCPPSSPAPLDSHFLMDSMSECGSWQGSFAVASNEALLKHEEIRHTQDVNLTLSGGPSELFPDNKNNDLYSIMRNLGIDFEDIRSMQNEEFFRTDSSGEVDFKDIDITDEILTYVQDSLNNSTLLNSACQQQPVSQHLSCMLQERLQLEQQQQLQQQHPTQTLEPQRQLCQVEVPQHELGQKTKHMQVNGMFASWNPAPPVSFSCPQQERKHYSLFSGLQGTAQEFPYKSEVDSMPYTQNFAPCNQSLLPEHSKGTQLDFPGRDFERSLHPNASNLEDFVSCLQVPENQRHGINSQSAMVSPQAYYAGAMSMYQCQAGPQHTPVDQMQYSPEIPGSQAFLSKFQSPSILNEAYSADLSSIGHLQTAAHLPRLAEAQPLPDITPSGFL
In words: H4IIE-luc transactivation bioassay (AhR-mediated potency). An excerpt:
H4IIE cell line derived from rat hepatoma has been reported to continuously express cytochrome P450 protein/mRNA. For this study, H4IIE cells transfected with the luciferase (Luc) reporter gene plasmid (pGudLuc1.1) were used, originally obtained from Jac Aarts, University of Wageningen, The Netherlands and further developed by John Giesy, University of Saskatchewan[44],[45]. Upon ligand binding, AhR in H4IIE-luc is activated and translocated to the nucleus, where heat shock proteins are dissociated from the complex and they form a dimer with the AhR nuclear translocator (ARNT) protein. This complex binds to specific DNA sequences with high affinity, the dioxin-responsive element (DRE). The binding to the DRE results in DNA bending transcriptional activation of adjacent responsive genes.
Acute toxic potencies of chrysene homologues were determined based on an AhR-mediated activity using H4IIE-luc cells, by the method previously reported. […] After the exposure, the activity results were expressed as relative luminescence units that were quantified using a Victor X3 multi label plate reader (PerkinElmer, Waltham, MA). Benzo[a]pyrene was used as a positive control ligand. We converted responses of the H4IIE-luc bioassay to the percentages of the maximum response (%BaPmax) observed for a 50 nM BaP (= 100%BaPmax). All bioassays were repeated four times in triplicate (Table S4 for detail information of in vitro bioassay conditions). […] Estimations of EC50 values of target compounds from the dose–response relationships were basically assumed equal efficacy and parallelism between target compounds and reference compound (benzo[a]pyrene).
Table S4. In vitro transactivation bioassay conditions for evaluating toxicities of chemical compounds.

For data set [1] the following is noted: Table S1, not marked as estimated; cited from earlier work.

In general, EC50 refers to the concentration needed to bring the measured effect to its halfway point. Turning to `Oc1ccc2c(ccc3c4ccccc4ccc23)c1` [2-hydroxychrysene], the midpoint of the response at AhR, the EC50, lay at 59 µM. That is a double-digit micromolar value. Compound `Cc1cccc2c1ccc1c3ccccc3ccc21` [1-methylchrysene] came in with an EC50 at AhR of 1.9 µM. `Oc1ccc2ccc3c4ccccc4ccc3c2c1` [3-hydroxychrysene] registered an EC50 on AhR of 140 µM. Consider `c1ccc2c(c1)cc1ccc3c4ccccc4cc4ccc2c1c43` [Dibenzo[b,def]chrysene], for which the “Log Kow” value in data set [1] was 7.28. Besides, on AhR, the EC50 worked out at 14 µM. Take `Cc1ccc2ccc3c4ccccc4ccc3c2c1` [3-methylchrysene]: it took 1.1 µM to reach a half-maximal effect on AhR (EC50).

For `c1ccc2c(c1)ccc1c2ccc2c3ccccc3ccc21` [Benzo[a]chrysene], the “Log Kow” value in data set [1] was 7.11. Also, it took 20 µM to reach a half-maximal effect on AhR (EC50).

`c1ccc2cc3c(ccc4c5ccccc5ccc34)cc2c1` [Benzo[b]chrysene]: in data set [1], the “Log Kow” value is given as 7.11. Moreover, at AhR, the midpoint of the response, the EC50, lay at 2.8 µM.

Regarding `Cc1ccc2c(ccc3c4ccccc4ccc23)c1` [2-methylchrysene], the EC50 at AhR is 0.66 µM. This lies in the sub-micromolar range. `c1ccc2c(c1)ccc1c2ccc2ccc3ccccc3c21` [Benzo[c]chrysene]: in data set [1], the “Log Kow” value was 7.11. The same compound gave a 50% effective concentration (EC50) on AhR of 1.3 µM. On to `c1ccc2c(c1)cc1ccc3cccc4c5ccccc5c2c1c34` [Dibenzo[def,p]chrysene], for which the “Log Kow” value in data set [1] was 7.71. Further, on AhR, the half-maximal effective concentration (EC50) stood at 76 µM. Compound `Oc1cccc2c1ccc1c3ccccc3ccc21` [1-hydroxychrysene] yielded an EC50 at AhR of 87 µM. `c1ccc2c(c1)ccc1c3ccccc3ccc21` [Chrysene]: the “Log Kow” value in data set [1] is listed as 5.81. Also, the EC50 on AhR stood at 7.2 µM.
